According to US12187723B2 (BRISTOL-MYERS SQUIBB COMPANY, priority 2019, dated 2025):

Assays:
human TLR7 = target: T1, human TLR7 (Homo sapiens, UniProt Q9NYK1); experiment: TLR7 inhibition reporter assay (HEK-Blue SEAP); type: cell-based; conditions: HEK-Blue cells overexpressing human TLR7, gardiquimod 7.5 μM, 22 hour incubation
T1 construct: host or cells: HEK-Blue cells
T1 sequence (Q9NYK1 27-1049): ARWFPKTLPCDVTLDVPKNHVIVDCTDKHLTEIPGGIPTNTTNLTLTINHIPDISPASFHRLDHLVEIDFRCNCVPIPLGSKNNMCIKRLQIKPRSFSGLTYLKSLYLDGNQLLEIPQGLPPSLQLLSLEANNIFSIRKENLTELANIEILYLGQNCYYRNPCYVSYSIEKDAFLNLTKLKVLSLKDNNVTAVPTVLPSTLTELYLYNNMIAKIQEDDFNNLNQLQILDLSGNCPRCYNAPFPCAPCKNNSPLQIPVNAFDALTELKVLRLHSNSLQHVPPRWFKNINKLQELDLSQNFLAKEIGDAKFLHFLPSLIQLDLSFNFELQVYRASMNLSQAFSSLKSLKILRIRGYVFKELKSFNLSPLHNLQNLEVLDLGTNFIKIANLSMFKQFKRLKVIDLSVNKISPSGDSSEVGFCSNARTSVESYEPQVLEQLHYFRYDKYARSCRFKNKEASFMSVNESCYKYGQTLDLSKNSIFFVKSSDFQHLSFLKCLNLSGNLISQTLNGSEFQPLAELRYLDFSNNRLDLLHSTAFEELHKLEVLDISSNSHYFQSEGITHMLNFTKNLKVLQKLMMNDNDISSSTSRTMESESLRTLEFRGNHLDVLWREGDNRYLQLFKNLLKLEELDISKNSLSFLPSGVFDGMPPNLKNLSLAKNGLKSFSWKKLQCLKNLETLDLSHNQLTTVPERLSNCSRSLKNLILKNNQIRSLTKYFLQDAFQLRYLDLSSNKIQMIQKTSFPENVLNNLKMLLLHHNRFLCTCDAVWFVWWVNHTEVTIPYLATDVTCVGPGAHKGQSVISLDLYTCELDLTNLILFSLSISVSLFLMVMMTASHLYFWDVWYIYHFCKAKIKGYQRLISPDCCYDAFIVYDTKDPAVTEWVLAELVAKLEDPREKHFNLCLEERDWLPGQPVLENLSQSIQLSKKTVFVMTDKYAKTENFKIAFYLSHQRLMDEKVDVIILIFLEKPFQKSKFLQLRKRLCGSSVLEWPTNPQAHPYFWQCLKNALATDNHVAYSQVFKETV
Description: (§1) TLR7/8/9 Inhibition Reporter Assays
Briefly, cells are seeded into Greiner 384 well plates (15000 cells per well for TLR7, 20,000 for TLR8 and 25,000 for TLR9) and then treated with test compounds in DMSO to yield a final dose response concentration range of 0.05 nM-50 μM. […] After a 22 hour incubation at 37° C., 5% CO2, SEAP levels are determined with the addition of HEK-Blue™ Detection reagent (Invivogen), a cell culture medium that allows for detection of SEAP, according to manufacturer's specifications. The percent inhibition is determined as the % reduction in the HEK-Blue signal present in wells treated with agonist plus DMSO alone compared to wells treated with a known inhibitor.

human TLR9 = target: T2, human TLR9 (Homo sapiens, UniProt Q9NR96); experiment: TLR9 inhibition reporter assay (HEK-Blue SEAP); type: cell-based; conditions: HEK-Blue cells overexpressing human TLR9, ODN2006 5 nM, 22 hour incubation
T2 construct: host or cells: HEK-Blue cells
T2 sequence (Q9NR96 26-1032): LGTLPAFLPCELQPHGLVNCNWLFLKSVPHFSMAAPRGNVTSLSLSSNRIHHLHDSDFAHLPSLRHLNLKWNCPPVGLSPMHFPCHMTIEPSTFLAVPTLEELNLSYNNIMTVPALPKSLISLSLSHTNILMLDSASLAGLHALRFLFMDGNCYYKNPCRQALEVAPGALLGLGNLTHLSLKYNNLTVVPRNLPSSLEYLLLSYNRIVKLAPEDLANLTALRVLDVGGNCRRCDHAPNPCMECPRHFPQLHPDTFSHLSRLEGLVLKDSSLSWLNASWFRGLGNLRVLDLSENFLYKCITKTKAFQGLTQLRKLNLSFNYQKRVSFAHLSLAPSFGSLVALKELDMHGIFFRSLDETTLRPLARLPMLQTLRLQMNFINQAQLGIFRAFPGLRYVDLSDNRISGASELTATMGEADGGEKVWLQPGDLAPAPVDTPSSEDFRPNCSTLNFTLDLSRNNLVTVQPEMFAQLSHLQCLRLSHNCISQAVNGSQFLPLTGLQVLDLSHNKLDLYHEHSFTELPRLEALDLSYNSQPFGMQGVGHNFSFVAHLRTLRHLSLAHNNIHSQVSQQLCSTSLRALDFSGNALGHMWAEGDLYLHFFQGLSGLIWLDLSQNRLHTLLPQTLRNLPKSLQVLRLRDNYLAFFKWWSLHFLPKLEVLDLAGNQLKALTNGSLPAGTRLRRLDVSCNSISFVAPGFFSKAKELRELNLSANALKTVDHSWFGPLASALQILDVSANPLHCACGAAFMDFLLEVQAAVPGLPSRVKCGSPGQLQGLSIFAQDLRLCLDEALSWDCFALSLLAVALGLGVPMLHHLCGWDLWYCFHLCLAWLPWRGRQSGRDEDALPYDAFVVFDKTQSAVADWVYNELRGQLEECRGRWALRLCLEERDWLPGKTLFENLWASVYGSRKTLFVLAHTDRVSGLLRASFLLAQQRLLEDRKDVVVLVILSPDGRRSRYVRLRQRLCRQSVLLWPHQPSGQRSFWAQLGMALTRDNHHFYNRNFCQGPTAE
Description: as §1
HEK-Blue™-cells (Invivogen) overexpressing human TLR7, TLR8 or TLR9 receptors were used for screening inhibitors of these receptors using an inducible SEAP (secreted embryonic alkaline phosphatase) reporter gene under the control of the IFN-β minimal promoter fused to five NF-κB and AP-1-binding sites. Briefly, cells are seeded into Greiner 384 well plates (15000 cells per well for TLR7, 20,000 for TLR8 and 25,000 for TLR9) and then treated with test compounds in DMSO to yield a final dose response concentration range of 0.05 nM-50 μM. After a 30 minute compound pre-treatment at room temperature, the cells are then stimulated with a TLR7 ligand (gardiquimod at a final concentration of 7.5 μM), TLR8 ligand (R848 at a final concentration of 15.9 μM) or TLR9 ligand (ODN2006 at a final concentration of 5 nM) to activate NF-κB and AP-1 which induce the production of SEAP. After a 22 hour incubation at 37° C., 5% CO2, SEAP levels are determined with the addition of HEK-Blue™ Detection reagent (Invivogen), a cell culture medium that allows for detection of SEAP, according to manufacturer's specifications. The percent inhibition is determined as the % reduction in the HEK-Blue signal present in wells treated with agonist plus DMSO alone compared to wells treated with a known inhibitor.

Compound | IC50 (human TLR7) | IC50 (human TLR9)
COc1cc(-c2cc3[nH]c(=O)n([C@@H]4CCCN(CC5CCOCC5)C4)c3cc2C(F)(F)F)cn2ncnc12 [Example 112, (R)-5-(8-methoxy-[1,2,4]triazolo[1,5-a]pyridin-6-yl)-1-(1-((tetrahydro-2H-pyran-4-yl)methyl)piperidin-3-yl)-6-(trifluoromethyl)-1,3-dihydro-2H-benzo[d]imidazol-2-one] | 30.8 nM | 12700 nM
Cc1cc2c(cc1-c1cc(C)c3ncnn3c1)[nH]c(=O)n2[C@@H]1CCCN(CC#N)C1 [Example 96, (R)-2-(3-(6-methyl-5-(8-methyl-[1,2,4]triazolo[1,5-a]pyridin-6-yl)-2-oxo-2,3-dihydro-1H-benzo[d]imidazol-1-yl)piperidin-1-yl)acetonitrile] | 66.1 nM | 8640 nM
Cc1cc2c(cc1-c1cc(C)c3ncnn3c1)[nH]c(=O)n2C1CCN(C)CC1 [Example 3, 6-methyl-5-(8-methyl-[1,2,4]triazolo[1,5-a]pyridin-6-yl)-1-(1-methylpiperidin-4-yl)-1,3-dihydro-2H-benzo[d]imidazol-2-one] | 30.5 nM | 4640 nM
COc1cc(-c2cc3[nH]c(=O)n([C@H]4CCCN(CC5CCOC5)C4)c3cc2C(C)C)cn2ncnc12 (stereo partly drawn) [Example 126, 6-isopropyl-5-(8-methoxy-[1,2,4]triazolo[1,5-a]pyridin-6-yl)-1-((3S)-1-((tetrahydrofuran-3-yl)methyl)piperidin-3-yl)-1,3-dihydro-2H-benzo[d]imidazol-2-one] | 81.8 nM | 27800 nM
COc1cc(-c2cc3[nH]c(=O)n([C@@H]4CCCN(CC(C)(C)C)C4)c3cc2C(F)(F)F)cn2ncnc12 [Example 116, (R)-5-(8-methoxy-[1,2,4]triazolo[1,5-a]pyridin-6-yl)-1-(1-neopentylpiperidin-3-yl)-6-(trifluoromethyl)-1,3-dihydro-2H-benzo[d]imidazol-2-one] | 44.1 nM | 34200 nM
COc1cc(-c2cc3[nH]c(=O)n(C4CCN(C(C)C)CC4)c3cc2C)cn2ncnc12 [Example 10, 1-(1-isopropylpiperidin-4-yl)-5-(8-methoxy-[1,2,4]triazolo[1,5-a]pyridin-6-yl)-6-methyl-1,3-dihydro-2H-benzo[d]imidazol-2-one] | 63.2 nM | 354 nM
COc1cc(-c2cc3[nH]c(=O)n(C4CCN(C5COC5)CC4)c3cc2C(C)C)cn2ncnc12 [Example 157, 6-isopropyl-5-(8-methoxy-[1,2,4]triazolo[1,5-a]pyridin-6-yl)-1-(1-(oxetan-3-yl)piperidin-4-yl)-1,3-dihydro-2H-benzo[d]imidazol-2-one] | 76.8 nM | > 50000 nM

Now those with a lower IC50 (human TLR7), led by results:

IC50 (human TLR7) | IC50 (human TLR9) | Compound
14.3 nM | 15600 nM | COc1cc(-c2cc3[nH]c(=O)n([C@H]4CCCN(CC5CC5)C4)c3cc2C(C)C)cn2ncnc12 [Example 127, (S)-1-(1-(cyclopropylmethyl)piperidin-3-yl)-6-isopropyl-5-(8-methoxy-[1,2,4]triazolo[1,5-a]pyridin-6-yl)-1,3-dihydro-2H-benzo[d]imidazol-2-one]
12.3 nM | 17200 nM | COc1cc(-c2cc3[nH]c(=O)n(C4CCN(CC(C)C)CC4)c3cc2C(C)C)cn2ncnc12 [Example 164, 1-(1-isobutylpiperidin-4-yl)-6-isopropyl-5-(8-methoxy-[1,2,4]triazolo[1,5-a]pyridin-6-yl)-1,3-dihydro-2H-benzo[d]imidazol-2-one]
11 nM | 17700 nM | CCC(CC)CN1CCC[C@@H](n2c(=O)[nH]c3cc(-c4cn5ncnc5c(C)c4C)c(C(C)C)cc32)C1 [Example 151, (R)-5-(7,8-dimethyl-[1,2,4]triazolo[1,5-a]pyridin-6-yl)-1-(1-(2-ethylbutyl)piperidin-3-yl)-6-isopropyl-1,3-dihydro-2H-benzo[d]imidazol-2-one]
5.52 nM | 11900 nM | CCCN1CCC[C@@H](n2c(=O)[nH]c3cc(-c4cn5ncnc5c(C)c4C)c(C(C)C)cc32)C1 [Example 150, (R)-5-(7,8-dimethyl-[1,2,4]triazolo[1,5-a]pyridin-6-yl)-6-isopropyl-1-(1-propylpiperidin-3-yl)-1,3-dihydro-2H-benzo[d]imidazol-2-one]
3.35 nM | 10200 nM | COc1cc(-c2cc3[nH]c(=O)n([C@@H]4CCCN(C5CCOCC5)C4)c3cc2C(C)C)cn2ncnc12 [Example 143, (R)-6-isopropyl-5-(8-methoxy-[1,2,4]triazolo[1,5-a]pyridin-6-yl)-1-(1-(tetrahydro-2H-pyran-4-yl)piperidin-3-yl)-1,3-dihydro-2H-benzo[d]imidazol-2-one]
1.9 nM | 14900 nM | CCc1cc2c(cc1-c1cc(OC)c3ncnn3c1)[nH]c(=O)n2[C@H]1CC[C@@H](NC2CCOCC2)CC1 [Example 166, 6-ethyl-5-(8-methoxy-[1,2,4]triazolo[1,5-a]pyridin-6-yl)-1-((1s,4s)-4-((tetrahydro-2H-pyran-4-yl)amino)cyclohexyl)-1,3-dihydro-2H-benzo[d]imidazol-2-one]
0.64 nM | 1940 nM | COc1cc(-c2cc3[nH]c(=O)n([C@H]4CCCN(C(C)C)C4)c3cc2C(C)C)cn2ncnc12 [Example 120, (S)-6-isopropyl-1-(1-isopropylpiperidin-3-yl)-5-(8-methoxy-[1,2,4]triazolo[1,5-a]pyridin-6-yl)-1,3-dihydro-2H-benzo[d]imidazol-2-one]
0.58 nM | 13100 nM | COc1cc(-c2cc3[nH]c(=O)n([C@@H]4CCCN(CC(C)(C)C)C4)c3cc2C(C)C)cn2ncnc12 [Example 153, (R)-6-isopropyl-5-(8-methoxy-[1,2,4]triazolo[1,5-a]pyridin-6-yl)-1-(1-neopentylpiperidin-3-yl)-1,3-dihydro-2H-benzo[d]imidazol-2-one]
